Test results from PubChem BioAssay (NCI).
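Five concentrations, 48 hours, 96-well plates. GI50 is the concentration that inhibits growth by half. The concentration for full growth arrest is given as TGI.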

Key:
Assay in all cases: growth of human tumour cells (NCI), 48 h
786-0 renal = tested on: 786-0 renal
A549 NSCLC = tested on: A549 NSCLC
ACHN renal = tested on: ACHN renal
CAKI-1 renal = tested on: CAKI-1 renal
CCRF-CEM leukemia = tested on: CCRF-CEM leukemia
DLD-1 colon = tested on: DLD-1 colon
DMS 114 small cell lung = tested on: DMS 114 small cell lung
EKVX NSCLC = tested on: EKVX NSCLC
HCC-2998 colon = tested on: HCC-2998 colon
HCT-116 colon = tested on: HCT-116 colon
HCT-15 colon = tested on: HCT-15 colon
HL-60(TB) leukemia = tested on: HL-60(TB) leukemia
HOP-18 NSCLC = tested on: HOP-18 NSCLC
HOP-62 NSCLC = tested on: HOP-62 NSCLC
HOP-92 NSCLC = tested on: HOP-92 NSCLC
HT29 colon = tested on: HT29 colon
IGROV1 ovarian = tested on: IGROV1 ovarian
K-562 leukemia = tested on: K-562 leukemia
KM12 colon = tested on: KM12 colon
LOX IMVI melanoma = tested on: LOX IMVI melanoma
LXFL 529 NSCLC = tested on: LXFL 529 NSCLC
M14 melanoma = tested on: M14 melanoma
M19-MEL melanoma = tested on: M19-MEL melanoma
MALME-3M melanoma = tested on: MALME-3M melanoma
MOLT-4 leukemia = tested on: MOLT-4 leukemia
NCI-H226 lung = tested on: NCI-H226 lung
NCI-H23 lung = tested on: NCI-H23 lung
NCI-H460 lung = tested on: NCI-H460 lung
NCI-H522 lung = tested on: NCI-H522 lung
OVCAR-3 ovarian = tested on: OVCAR-3 ovarian
OVCAR-4 ovarian = tested on: OVCAR-4 ovarian
OVCAR-5 ovarian = tested on: OVCAR-5 ovarian
OVCAR-8 ovarian = tested on: OVCAR-8 ovarian
RPMI-8226 leukemia = tested on: RPMI-8226 leukemia
RXF 393 renal = tested on: RXF 393 renal
SF-268 CNS = tested on: SF-268 CNS
SF-295 CNS = tested on: SF-295 CNS
SF-539 CNS = tested on: SF-539 CNS
SK-MEL-2 melanoma = tested on: SK-MEL-2 melanoma
SK-MEL-28 melanoma = tested on: SK-MEL-28 melanoma
SK-MEL-5 melanoma = tested on: SK-MEL-5 melanoma
SK-OV-3 ovarian = tested on: SK-OV-3 ovarian
SN12C renal = tested on: SN12C renal
SNB-19 CNS = tested on: SNB-19 CNS
SNB-78 CNS = tested on: SNB-78 CNS
SW-620 colon = tested on: SW-620 colon
TK-10 renal = tested on: TK-10 renal
U251 CNS = tested on: U251 CNS
UACC-257 melanoma = tested on: UACC-257 melanoma
UACC-62 melanoma = tested on: UACC-62 melanoma
UO-31 renal = tested on: UO-31 renal
A498 renal = tested on: A498 renal
BT-549 breast = tested on: BT-549 breast
DU-145 prostate = tested on: DU-145 prostate
HS 578T breast = tested on: HS 578T breast
MCF7 breast = tested on: MCF7 breast
MDA-MB-231 breast = tested on: MDA-MB-231 breast
MDA-MB-435 = tested on: MDA-MB-435
MDA-N = tested on: MDA-N
NCI/ADR-RES ovarian = tested on: NCI/ADR-RES ovarian
PC-3 prostate = tested on: PC-3 prostate
SNB-75 CNS = tested on: SNB-75 CNS
SR leukemia = tested on: SR leukemia
T-47D breast = tested on: T-47D breast
KM20L2 colon = tested on: KM20L2 colon

## O=[N+]([O-])c1ccc(/C=C/c2csnn2)cc1
786-0 renal
  TGI: > 100 µM
A549 NSCLC
  TGI: > 100 µM
ACHN renal
  TGI: > 100 µM
CAKI-1 renal
  TGI: > 100 µM
CCRF-CEM leukemia
  TGI: > 100 µM
DLD-1 colon
  TGI: > 100 µM
DMS 114 small cell lung
  TGI: > 100 µM
EKVX NSCLC
  TGI: > 100 µM
HCC-2998 colon
  TGI: > 100 µM
HCT-116 colon
  TGI: > 100 µM
HCT-15 colon
  TGI: > 100 µM
HL-60(TB) leukemia
  TGI: > 100 µM
HOP-18 NSCLC
  TGI: > 100 µM
HOP-62 NSCLC
  TGI: > 100 µM
HOP-92 NSCLC
  TGI: > 100 µM
HT29 colon
  TGI: > 100 µM
IGROV1 ovarian
  TGI: > 100 µM
K-562 leukemia
  TGI: > 100 µM
KM12 colon
  TGI: > 100 µM
LOX IMVI melanoma
  TGI: > 100 µM
LXFL 529 NSCLC
  TGI: > 100 µM
M14 melanoma
  TGI: > 100 µM
M19-MEL melanoma
  TGI: > 100 µM
MALME-3M melanoma
  TGI: > 100 µM
MOLT-4 leukemia
  TGI: > 100 µM
NCI-H226 lung
  TGI: > 100 µM
NCI-H23 lung
  TGI: > 100 µM
NCI-H460 lung
  TGI: > 100 µM
NCI-H522 lung
  TGI: > 100 µM
OVCAR-3 ovarian
  TGI: > 100 µM
OVCAR-4 ovarian
  TGI: > 100 µM
OVCAR-5 ovarian
  TGI: > 100 µM
OVCAR-8 ovarian
  TGI: > 100 µM
RPMI-8226 leukemia
  TGI: > 100 µM
RXF 393 renal
  TGI: > 100 µM
SF-268 CNS
  TGI: > 100 µM
SF-295 CNS
  TGI: > 100 µM
SF-539 CNS
  TGI: > 100 µM
SK-MEL-2 melanoma
  TGI: > 100 µM
SK-MEL-28 melanoma
  TGI: > 100 µM
SK-MEL-5 melanoma
  TGI: > 100 µM
SK-OV-3 ovarian
  TGI: > 100 µM
SN12C renal
  TGI: > 100 µM
SNB-19 CNS
  TGI: > 100 µM
SNB-78 CNS
  TGI: > 100 µM
SW-620 colon
  TGI: > 100 µM
TK-10 renal
  TGI: > 100 µM
U251 CNS
  TGI: > 100 µM
UACC-257 melanoma
  TGI: > 100 µM
UACC-62 melanoma
  TGI: > 100 µM
UO-31 renal
  TGI: > 100 µM

## C/C(=N\NC(=S)N1CCCCCCCCCCCC1)c1ccccn1
786-0 renal
  TGI: 1.24 µM
A498 renal
  TGI: 1.32 µM
A549 NSCLC
  TGI: 1.35 µM
ACHN renal
  TGI: 1.41 µM
BT-549 breast
  TGI: 1.6 µM
CAKI-1 renal
  TGI: 1.15 µM
CCRF-CEM leukemia
  TGI: 1.76 µM
DU-145 prostate
  TGI: 1.94 µM
EKVX NSCLC
  TGI: 0.432 µM
HCC-2998 colon
  TGI: 1.63 µM
HCT-116 colon
  TGI: 1.66 µM
HCT-15 colon
  TGI: 1.6 µM
HL-60(TB) leukemia
  TGI: > 100 µM
HOP-62 NSCLC
  TGI: 1.36 µM
HOP-92 NSCLC
  TGI: 0.42 µM
HS 578T breast
  TGI: 0.942 µM
HT29 colon
  TGI: 1.04 µM
IGROV1 ovarian
  TGI: 1.35 µM
K-562 leukemia
  TGI: 0.121 µM
KM12 colon
  TGI: 1.52 µM
LOX IMVI melanoma
  TGI: 1.23 µM
M14 melanoma
  TGI: 2.15 µM
MALME-3M melanoma
  TGI: 1.08 µM
MCF7 breast
  TGI: 0.674 µM
MDA-MB-231 breast
  TGI: 1.22 µM
MDA-MB-435
  TGI: 0.721 µM
MDA-N
  TGI: 1.16 µM
MOLT-4 leukemia
  TGI: 1.07 µM
NCI-H226 lung
  TGI: 1.02 µM
NCI-H23 lung
  TGI: 2.81 µM
NCI-H460 lung
  TGI: 1.43 µM
NCI-H522 lung
  TGI: 0.408 µM
NCI/ADR-RES ovarian
  TGI: 9.7 µM
OVCAR-3 ovarian
  TGI: 1.48 µM
OVCAR-4 ovarian
  TGI: 1.51 µM
OVCAR-5 ovarian
  TGI: 2.2 µM
OVCAR-8 ovarian
  TGI: 1.9 µM
PC-3 prostate
  TGI: 1.1 µM
RXF 393 renal
  TGI: 0.536 µM
SF-268 CNS
  TGI: 2.01 µM
SF-295 CNS
  TGI: 1.01 µM
SF-539 CNS
  TGI: 0.846 µM
SK-MEL-2 melanoma
  TGI: 1.27 µM
SK-MEL-28 melanoma
  TGI: 2.02 µM
SK-MEL-5 melanoma
  TGI: 0.636 µM
SN12C renal
  TGI: 2.19 µM
SNB-19 CNS
  TGI: 2.03 µM
SNB-75 CNS
  TGI: 1 µM
SR leukemia
  TGI: 2.28 µM
SW-620 colon
  TGI: 0.692 µM
T-47D breast
  TGI: 1.25 µM
TK-10 renal
  TGI: 1.35 µM
U251 CNS
  TGI: 0.28 µM
UACC-257 melanoma
  TGI: 0.414 µM
UO-31 renal
  TGI: 1.77 µM

## CC(=O)[CH-]C(=O)c1ccccc1.CC(=O)[CH-]C(=O)c1ccccc1.Cl.[O-]c1ccccn1.[O-]c1ccccn1.[Ti+4]
786-0 renal
  GI50: > 100 µM
  TGI: > 100 µM
A498 renal
  GI50: > 100 µM
  TGI: > 100 µM
A549 NSCLC
  GI50: > 100 µM
  TGI: > 100 µM
ACHN renal
  GI50: > 100 µM
  TGI: > 100 µM
CAKI-1 renal
  GI50: > 100 µM
  TGI: > 100 µM
EKVX NSCLC
  GI50: > 100 µM
  TGI: > 100 µM
HCC-2998 colon
  GI50: > 100 µM
  TGI: > 100 µM
HCT-116 colon
  GI50: > 100 µM
  TGI: > 100 µM
HCT-15 colon
  GI50: > 100 µM
  TGI: > 100 µM
HL-60(TB) leukemia
  GI50: > 100 µM
  TGI: > 100 µM
HOP-62 NSCLC
  GI50: > 100 µM
  TGI: > 100 µM
HT29 colon
  GI50: > 100 µM
  TGI: > 100 µM
IGROV1 ovarian
  GI50: > 100 µM
  TGI: > 100 µM
K-562 leukemia
  GI50: > 100 µM
  TGI: > 100 µM
KM12 colon
  GI50: > 100 µM
  TGI: > 100 µM
KM20L2 colon
  GI50: > 100 µM
  TGI: > 100 µM
LOX IMVI melanoma
  GI50: > 100 µM
  TGI: > 100 µM
LXFL 529 NSCLC
  GI50: > 100 µM
  TGI: > 100 µM
M14 melanoma
  GI50: > 100 µM
  TGI: > 100 µM
M19-MEL melanoma
  GI50: > 100 µM
  TGI: > 100 µM
MALME-3M melanoma
  GI50: > 100 µM
  TGI: > 100 µM
MOLT-4 leukemia
  GI50: > 100 µM
  TGI: > 100 µM
NCI-H226 lung
  GI50: > 100 µM
  TGI: > 100 µM
NCI-H460 lung
  GI50: > 100 µM
  TGI: > 100 µM
NCI-H522 lung
  GI50: > 100 µM
  TGI: > 100 µM
OVCAR-3 ovarian
  GI50: > 100 µM
  TGI: > 100 µM
OVCAR-4 ovarian
  GI50: > 100 µM
  TGI: > 100 µM
OVCAR-5 ovarian
  GI50: > 100 µM
  TGI: > 100 µM
OVCAR-8 ovarian
  GI50: > 100 µM
  TGI: > 100 µM
RPMI-8226 leukemia
  GI50: > 100 µM
  TGI: > 100 µM
SF-268 CNS
  GI50: > 100 µM
  TGI: > 100 µM
SF-295 CNS
  GI50: 47.6 µM
  TGI: > 100 µM
SF-539 CNS
  GI50: > 100 µM
  TGI: > 100 µM
SK-MEL-2 melanoma
  GI50: > 100 µM
  TGI: > 100 µM
SK-MEL-28 melanoma
  GI50: > 100 µM
  TGI: > 100 µM
SK-MEL-5 melanoma
  GI50: > 100 µM
  TGI: > 100 µM
SK-OV-3 ovarian
  GI50: > 100 µM
  TGI: > 100 µM
SN12C renal
  GI50: > 100 µM
  TGI: > 100 µM
SNB-19 CNS
  GI50: > 100 µM
  TGI: > 100 µM
SNB-75 CNS
  GI50: > 100 µM
  TGI: > 100 µM
SW-620 colon
  GI50: > 100 µM
  TGI: > 100 µM
U251 CNS
  GI50: > 100 µM
  TGI: > 100 µM
UACC-257 melanoma
  GI50: > 100 µM
  TGI: > 100 µM
UACC-62 melanoma
  GI50: > 100 µM
  TGI: > 100 µM
UO-31 renal
  GI50: > 100 µM
  TGI: > 100 µM
